This assay relates to 883617-216-R-J1-PDC complex spheroids, growth, % test/control. Kind of assay: Anticancer human tumor 883617-216-R-J1-PDC patient-derived bladder carcinoma cell line growth inhibition [AhR]. To be noted: for viability, T/C: stronger effect = lower value. The text has this: Multicellular complex tumor spheroid response to aryl hydrocarbon receptor antagonists in combination with a variety of drugs and investigational agents in selected tumor cell lines
The current study was undertaken to assess response to aryl hydrocarbon receptor antagonists in combination with standard-of-care drugs and investigational agents in solid tumor complex spheroid models. Complex spheroids include a stromal component modeled by human endothelial cells (HUVEC) and fibroblasts modeled by human mesenchymal stem cells (MSCs). The concentration ranges selected for each drug and investigational agent were based upon clinically achievable concentrations if the clinical Cmax of the agent was known.
Compounds. The drugs and investigational agents: BAY 2416964 (NSC825713), GNF351 (NSC835774), CH-223191 (NSC835775), CPI-455 (NSC825282), aza-TdCyd (NSC777586), decitabine (NSC127716), belinostat (NSC758774), entinostat (NSC756642), pevonedistat (NSC761192), tazemetostat (NSC777109), talazoparib (NSC765396), olaparib (NSC753686), selinexor (NSC780203), nedisertib (M3814, NSC802822), bortezomib (NSC756655), venetoclax (NSC766270), doxorubicin (NSC123127), elimusertib (BAY189344, NSC800525), ceralasertib (AZD6738, NSC777638), TAK-243 (NSC785004), alisertib (NSC759677), etoposide (NSC141540), topotecan (NSC609699), eribulin (NSC707389), gemcitabine (NSC613327), carboplatin (NSC241240), cisplatin (NSC119875), and SN-38 (NSC673596) were obtained from the National Cancer Institute (NCI) Developmental Therapeutics Program Chemical Repository (32). The FDA-approved anticancer drug set is available from the Developmental Therapeutics Program at https://dtp.cancer.gov/organization/dscb/obtaining/available plates.htm. […] The stock solutions were prepared in dimethyl sulfoxide (DMSO, Sigma-Aldrich, St. Louis, MO, cat. D2650), except for the platinum compounds which were prepared in saline (Quality Biological, Gaithersburg, MD, cat. 114-055-101), at 800-fold the tested concentration and stored at -70 degrees C prior to their use. All drugs and investigational agents were tested over a range starting from a high concentration at or near the clinical Cmax and decreasing in half-log increments. If the clinical Cmax for an agent had not been determined, the highest concentration tested was 10 microM (Table 1).
Cell Culture. All cells were maintained in an incubator at 37 degrees C and 5% CO2 with 95% humidity. The PDC lines were cultured according to standard operating procedures established by the NCI PDMR (https://pdmr.cancer.gov). Briefly, all PDCs were thawed and cultured in Matrigel-coated flasks prepared with a working solution of 1X Ham's F-12 nutrient mix, without supplementation (Invitrogen, Waltham, MA, cat. 11765054), 100 U/mL penicillin-streptomycin (Invitrogen, cat. 15140122), and 2.5% Matrigel (Corning Inc., Corning, NY, cat. 354248) for the first three passages. All PDCs were cultured in complete DMEM/F-12 media containing advanced DMEM/F-12 (Invitrogen, cat. 12634028), 4.9% defined fetal bovine serum, heat inactivated (HyClone Laboratories Inc., Logan, UT, cat. SH30070.03HI), 389 ng/mL hydrocortisone (Sigma-Aldrich, cat. H4001), 9.7 ng/mL human EGF recombinant protein (Invitrogen, cat. PHG0313), 23.4 microg/mL adenine (Sigma-Aldrich, cat. A2786), 97.3 U/mL penicillin-streptomycin (Invitrogen, cat. 15140122), 1.9 mM L-glutamine (Invitrogen, cat. 25030081), and 9.7 microM Y-27632 dihydrochloride (Tocris Bioscience, Bristol, United Kingdom, cat. 1254). The PDCs were cultured in complete DMEM/F12 media without 10 microM Y-27632 dihydrochloride for at least two passages prior to the screen. The established cell lines NCI-H1341 and […] were cultured in DMEM/F-12, HEPES (Invitrogen, cat. 11330032), 5% defined fetal bovine serum (HyClone Laboratories Inc., cat. SH30070.03), ITS premix universal culture supplement [insulin (5 microg/mL), transferrin (5 microg/mL), and selenious acid (5 ng/mL)] […]

The mark [1] stands for this setting: curve of first compound, second compound 0.1 µM.
Where [2] appears, read: curve of first compound, second compound 0.316 µM.
Where [3] appears, read: curve of first compound, second compound 1 µM.
The mark [4] stands for this setting: curve of first compound, second compound 3.16 µM.
Setting [5] is: curve of first compound, second compound 10 µM.

Molecules are shown by their SMILES. Several values for one entry are separate records, joined by “and”; a condition that tells them apart may be missing. Equal values may be shown once.
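Further: exposure lasted 7 days after dosing on day 3 of spheroid growth.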

Consider `CCc1c2c(nc3ccc(O)cc13)-c1cc3c(c(=O)n1C2)COC(=O)[C@]3(O)CC` + CC(CO)NC(=O)c1cc(-c2ccc(Cl)cc2)nn(-c2cnn(C)c2)c1=O, for which the concentration for half-maximal inhibition (IC50) reads like this: under setting [1], more than 300 nM; under setting [2], more than 300 nM; under setting [3], more than 300 nM; under setting [4], more than 300 nM; under setting [5], 300 nM. Also, the viability, T/C was 50.4% (second compound 0.1 µM, first compound 0.000949 µM); 64.7% (second compound 0.1 µM, first compound 0.003 µM); 66.9% (second compound 0.1 µM, first compound 0.00949 µM); 39.6% (second compound 0.1 µM, first compound 0.03 µM); 85.5% (second compound 0.1 µM, first compound 0.0949 µM); 86% (second compound 0.1 µM, first compound 0.3 µM). Also, the viability, T/C reads like this: (second compound 0.316 µM, first compound 0.000949 µM) 68.2%; (second compound 0.316 µM, first compound 0.003 µM) 63.3%; (second compound 0.316 µM, first compound 0.00949 µM) 87.4%; (second compound 0.316 µM, first compound 0.03 µM) 47.8%; (second compound 0.316 µM, first compound 0.0949 µM) 69.9%; (second compound 0.316 µM, first compound 0.3 µM) 80.7%. Besides, the viability, T/C is, setting by setting: (second compound 1 µM, first compound 0.000949 µM) 83.1%; (second compound 1 µM, first compound 0.003 µM) 88.2%; (second compound 1 µM, first compound 0.00949 µM) 145%; (second compound 1 µM, first compound 0.03 µM) 64.1%; (second compound 1 µM, first compound 0.0949 µM) 89.4%; (second compound 1 µM, first compound 0.3 µM) 63.9%. In addition, the viability, T/C is, setting by setting: (second compound 3.16 µM, first compound 0.000949 µM) 110%; (second compound 3.16 µM, first compound 0.003 µM) 63.3%; (second compound 3.16 µM, first compound 0.00949 µM) 40.5%; (second compound 3.16 µM, first compound 0.03 µM) 77.9%; (second compound 3.16 µM, first compound 0.0949 µM) 92.7%; (second compound 3.16 µM, first compound 0.3 µM) 73.8%. For the same molecule, the viability, T/C by setting is: (second compound 10 µM, first compound 0.000949 µM) 73.2%; (second compound 10 µM, first compound 0.003 µM) 61.7%; (second compound 10 µM, first compound 0.00949 µM) 103%; (second compound 10 µM, first compound 0.03 µM) 87.3%; (second compound 10 µM, first compound 0.0949 µM) 43.6%; (second compound 10 µM, first compound 0.3 µM) 57.4%.

For `CCN(c1cc(-c2ccc(CN3CCOCC3)cc2)cc(C(=O)NCc2c(C)cc(C)[nH]c2=O)c1C)C1CCOCC1`, the viability, T/C by setting is: (compound 0.00949 µM) 95.9% and 98.2% and 103%; (compound 0.03 µM) 89.1% and 111% and 60.8%; (compound 0.0949 µM) 106% and 89.9% and 90.6%; (compound 0.3 µM) 105% and 95.1% and 99.1%; (compound 0.949 µM) 104% and 115% and 88.1%; (compound 3 µM) 95.5% and 93.6% and 130%. Under “curve of compound”, the IC50 is more than 3000 nM.

Regarding `CC(C)c1c(-c2ccccc2)nc2c(C#N)c[nH]n2c1=O` + CC(CO)NC(=O)c1cc(-c2ccc(Cl)cc2)nn(-c2cnn(C)c2)c1=O, the IC50 is more than 10000 nM under setting [1]; more than 10000 nM under setting [2]; more than 10000 nM under setting [3]; more than 10000 nM under setting [4]; more than 10000 nM under setting [5]. For the same molecule, the viability, T/C is, setting by setting: (second compound 0.1 µM, first compound 0.0316 µM) 77.3%; (second compound 0.1 µM, first compound 0.1 µM) 71.2%; (second compound 0.1 µM, first compound 0.316 µM) 66.1%; (second compound 0.1 µM, first compound 1 µM) 70.4%; (second compound 0.1 µM, first compound 3.16 µM) 84.5%; (second compound 0.1 µM, first compound 10 µM) 96%. Moreover, the viability, T/C is, setting by setting: (second compound 0.316 µM, first compound 0.0316 µM) 94.8%; (second compound 0.316 µM, first compound 0.1 µM) 85.2%; (second compound 0.316 µM, first compound 0.316 µM) 65.7%; (second compound 0.316 µM, first compound 1 µM) 74%; (second compound 0.316 µM, first compound 3.16 µM) 91.4%; (second compound 0.316 µM, first compound 10 µM) 75.6%. The viability, T/C is 59.7% (second compound 1 µM, first compound 0.0316 µM); 97.8% (second compound 1 µM, first compound 0.1 µM); 103% (second compound 1 µM, first compound 0.316 µM); 92.6% (second compound 1 µM, first compound 1 µM); 87.1% (second compound 1 µM, first compound 3.16 µM); 78.3% (second compound 1 µM, first compound 10 µM). The viability, T/C (second compound 3.16 µM, first compound 0.0316 µM) was 95.2%; the viability, T/C (second compound 3.16 µM, first compound 0.1 µM) was 92.5%; the viability, T/C (second compound 3.16 µM, first compound 0.316 µM) is 75.2%; the viability, T/C (second compound 3.16 µM, first compound 1 µM) is 79.3%; the viability, T/C (second compound 3.16 µM, first compound 3.16 µM) is 51%; the viability, T/C (second compound 3.16 µM, first compound 10 µM) is 57.7%. Also, the viability, T/C was 79.4% (second compound 10 µM, first compound 0.0316 µM); 87.1% (second compound 10 µM, first compound 0.1 µM); 106% (second compound 10 µM, first compound 0.316 µM); 57.8% (second compound 10 µM, first compound 1 µM); 64% (second compound 10 µM, first compound 3.16 µM); 62.5% (second compound 10 µM, first compound 10 µM).

`CC[C@@]1(O)C(=O)OCc2c1cc1n(c2=O)Cc2cc3c(CN(C)C)c(O)ccc3nc2-1`: the viability, T/C runs as follows: (compound 0.000316 µM) 92.8% and 94.7% and 101%; (compound 0.001 µM) 108% and 116% and 99.4%; (compound 0.00316 µM) 90.1% and 89.1% and 94.2%; (compound 0.01 µM) 88.6% and 87.3% and 75.8%; (compound 0.0316 µM) 71% and 95.2% and 80.3%; (compound 0.1 µM) 67.6% and 80.6% and 70.9%. Besides, the IC50 (curve of compound) was more than 100 nM.

As usually defined, the IC50 is the concentration at which inhibition is half-maximal. As usually defined, the viability, T/C is the result in the treated group divided by that in the control group, in per cent.

The values are drawn from PubChem BioAssay AID1919004 (Molecular Pharmacology Branch, DTP, NCI, 2023).
